ChEMBL document CHEMBL1201862, “PubChem BioAssay data set” (2004)
One block for each compound: values may come before it. Active and inactive are the calls of the source.

Legend:
[1] = molecular target: Protein disulfide-isomerase (Homo sapiens, UniProt P07237); test: inhibition of PDI-driven insulin aggregation – biochemical, turbidity, absorbance, cherry-picked samples, dose response (AID 602350); type: functional
[2] = molecular target: Intestinal-type alkaline phosphatase (Homo sapiens, UniProt P09923); test: activation of human intestinal alkaline phosphatase – biochemical, dose response (AID 488873); type: functional
[3] = molecular target: T1, Alkaline phosphatase, tissue-nonspecific isozyme (Homo sapiens, UniProt P05186); test: TNAP enzyme inhibition by screening hits, dose response, selectivity assay for mouse IAP inhibitor project, biochemical, human TNAP, uHTS hits (AID 488906); type: functional
T1 sequence (P05186 whole entry): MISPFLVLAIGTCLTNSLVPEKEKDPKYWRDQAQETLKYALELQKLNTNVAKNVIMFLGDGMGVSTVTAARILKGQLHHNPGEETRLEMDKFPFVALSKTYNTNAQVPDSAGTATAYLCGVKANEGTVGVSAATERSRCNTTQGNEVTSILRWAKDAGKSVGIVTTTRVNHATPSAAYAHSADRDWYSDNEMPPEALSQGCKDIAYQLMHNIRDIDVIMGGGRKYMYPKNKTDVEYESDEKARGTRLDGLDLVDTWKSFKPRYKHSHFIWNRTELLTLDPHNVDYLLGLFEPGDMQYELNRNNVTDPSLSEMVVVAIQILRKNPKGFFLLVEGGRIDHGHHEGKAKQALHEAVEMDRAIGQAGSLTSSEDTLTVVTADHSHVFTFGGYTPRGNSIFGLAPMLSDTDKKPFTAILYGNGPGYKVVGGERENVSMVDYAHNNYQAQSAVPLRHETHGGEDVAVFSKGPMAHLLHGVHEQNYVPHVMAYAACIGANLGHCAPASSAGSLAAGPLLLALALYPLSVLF

[4] = molecular target: Dual specificity tyrosine-phosphorylation-regulated kinase 1A (Rattus norvegicus, UniProt Q63470); type: biochemical, Homo sapiens
[5] = molecular target: Intestinal-type alkaline phosphatase (Mus musculus, UniProt P24822); test: PubChem AID 488785; type: functional
Protein Wnt-3a = Protein Wnt-3a (Mus musculus, UniProt P27467); test: antagonism of Wnt3a pathway luciferase reporter – Wnt-LIGHT cells, luminescence, selectivity assay for Gli-SUFU antagonist project, dose response (AID 651570); type: functional; details: read-out: IC50_Mean;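 also: Wnt-LIGHT reporter cells stimulated with conditioned medium from Wnt3a-producing cells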
[6] = NIH3T3 cell viability loss – ATP luminescence, mouse fibroblasts, counter-screen, dose response (AID 2010); type: functional, cell-based;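 also: cells exposed to compound for about 90 hours before reading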
[7] = Trypanosoma cruzi growth suppression in host cells – NIH3T3 host cells, beta-gal luminescence, confirmation (AID 2044); type: functional, cell-based;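 also: intracellular parasites grown in NIH/3T3 mouse fibroblasts as host cells; luminescent beta-galactosidase reporter signal from transgenic T. cruzi replicating inside host cells; inhibitors lower the luminescence signal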
[8] = molecular target: Benomyl/methotrexate resistance protein (Candida albicans, UniProt P28873); test: Candida albicans Mdr1 pump inhibition curves – singleplex, Cherry Pick1 hits, dose response (AID 588608); type: functional
Melanocortin receptor 4 = Melanocortin receptor 4 (Homo sapiens, UniProt P32245); type: functional, cell-based;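 also: Cell-based assay with luminescence read-out, confirmatory dose-response testing for agonist activity of biased ligands at MC4R; human U2OS cells with tagged receptor and beta-arrestin; potency of agonists that increase receptor coupling to beta-arrestin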
[9] = inhibition of ARNT PAS-B/TACC3 complex formation – biochemical, AlphaScreen, cherry-picked samples, confirmation (AID 651703); type: functional, Homo sapiens;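 also: His-tagged ARNT PAS-B domain paired with GST-TACC3 E629A dimer coactivator fragment; potency of inhibitors that break up the complex and lower AlphaScreen signal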
[10] = molecular target: Alkaline phosphatase, placental type (Homo sapiens, UniProt P05187); test: human placental alkaline phosphatase inhibition – biochemical, luminescence, confirmation (AID 1512); type: functional
[11] = molecular target: T2, Sentrin-specific protease 8 (Homo sapiens, UniProt Q96LD8); test: inhibition of human SENP8 cleavage activity – biochemical, luminescence, SAR follow-up (AID 504501); type: functional
T2 sequence (Q96LD8 whole entry): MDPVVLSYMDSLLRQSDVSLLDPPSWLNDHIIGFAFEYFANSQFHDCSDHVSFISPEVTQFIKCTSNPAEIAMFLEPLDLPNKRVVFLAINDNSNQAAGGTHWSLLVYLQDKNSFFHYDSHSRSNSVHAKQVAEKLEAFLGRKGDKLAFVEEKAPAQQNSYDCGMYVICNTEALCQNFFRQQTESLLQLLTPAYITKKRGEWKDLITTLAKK

[12] = molecular target: T3, Sentrin-specific protease 6 (Homo sapiens, UniProt Q9GZR1); test: SAR Analysis of small molecule inhibitors of Sentrin-specific protease 6 (SENP6) using a Luminescent assay. [Related pubchem assays (depositor defined):AID2582, AID2599]; type: functional
T3 sequence (Q9GZR1 whole entry): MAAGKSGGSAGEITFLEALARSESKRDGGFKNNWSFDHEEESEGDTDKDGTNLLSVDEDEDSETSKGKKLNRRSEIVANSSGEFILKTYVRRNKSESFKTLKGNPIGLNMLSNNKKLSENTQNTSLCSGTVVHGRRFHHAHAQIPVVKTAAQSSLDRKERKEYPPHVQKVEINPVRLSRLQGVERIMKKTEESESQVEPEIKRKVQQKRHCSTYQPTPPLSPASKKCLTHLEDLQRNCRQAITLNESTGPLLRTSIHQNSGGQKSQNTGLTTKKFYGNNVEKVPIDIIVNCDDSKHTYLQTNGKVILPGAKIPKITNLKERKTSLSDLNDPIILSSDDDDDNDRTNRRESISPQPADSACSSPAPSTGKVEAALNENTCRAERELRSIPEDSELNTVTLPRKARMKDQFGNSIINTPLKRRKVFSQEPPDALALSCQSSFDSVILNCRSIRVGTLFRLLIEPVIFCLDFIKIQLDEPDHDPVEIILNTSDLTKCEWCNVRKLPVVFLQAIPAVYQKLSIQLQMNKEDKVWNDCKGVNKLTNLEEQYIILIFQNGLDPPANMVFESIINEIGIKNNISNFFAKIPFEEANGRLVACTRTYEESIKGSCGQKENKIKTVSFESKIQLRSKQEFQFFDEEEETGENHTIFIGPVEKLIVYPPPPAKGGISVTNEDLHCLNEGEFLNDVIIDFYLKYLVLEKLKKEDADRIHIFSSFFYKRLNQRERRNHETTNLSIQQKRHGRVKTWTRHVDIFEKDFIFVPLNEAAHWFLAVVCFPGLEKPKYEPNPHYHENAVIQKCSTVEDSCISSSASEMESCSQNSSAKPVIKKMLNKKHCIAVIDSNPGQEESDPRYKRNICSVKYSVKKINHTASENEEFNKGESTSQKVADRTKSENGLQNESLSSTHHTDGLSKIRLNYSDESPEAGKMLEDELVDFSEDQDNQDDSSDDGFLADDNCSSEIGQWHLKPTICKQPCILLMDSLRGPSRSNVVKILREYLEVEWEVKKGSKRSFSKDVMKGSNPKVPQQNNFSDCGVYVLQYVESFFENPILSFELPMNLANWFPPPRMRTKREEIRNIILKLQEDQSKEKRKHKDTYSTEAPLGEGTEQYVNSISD

[13] = molecular target: T4, Sentrin-specific protease 7 (Homo sapiens, UniProt Q9BQF6); test: inhibition of human SENP7 cleavage activity – biochemical, luminescence, SAR follow-up (AID 504497); type: functional
T4 sequence (Q9BQF6 whole entry): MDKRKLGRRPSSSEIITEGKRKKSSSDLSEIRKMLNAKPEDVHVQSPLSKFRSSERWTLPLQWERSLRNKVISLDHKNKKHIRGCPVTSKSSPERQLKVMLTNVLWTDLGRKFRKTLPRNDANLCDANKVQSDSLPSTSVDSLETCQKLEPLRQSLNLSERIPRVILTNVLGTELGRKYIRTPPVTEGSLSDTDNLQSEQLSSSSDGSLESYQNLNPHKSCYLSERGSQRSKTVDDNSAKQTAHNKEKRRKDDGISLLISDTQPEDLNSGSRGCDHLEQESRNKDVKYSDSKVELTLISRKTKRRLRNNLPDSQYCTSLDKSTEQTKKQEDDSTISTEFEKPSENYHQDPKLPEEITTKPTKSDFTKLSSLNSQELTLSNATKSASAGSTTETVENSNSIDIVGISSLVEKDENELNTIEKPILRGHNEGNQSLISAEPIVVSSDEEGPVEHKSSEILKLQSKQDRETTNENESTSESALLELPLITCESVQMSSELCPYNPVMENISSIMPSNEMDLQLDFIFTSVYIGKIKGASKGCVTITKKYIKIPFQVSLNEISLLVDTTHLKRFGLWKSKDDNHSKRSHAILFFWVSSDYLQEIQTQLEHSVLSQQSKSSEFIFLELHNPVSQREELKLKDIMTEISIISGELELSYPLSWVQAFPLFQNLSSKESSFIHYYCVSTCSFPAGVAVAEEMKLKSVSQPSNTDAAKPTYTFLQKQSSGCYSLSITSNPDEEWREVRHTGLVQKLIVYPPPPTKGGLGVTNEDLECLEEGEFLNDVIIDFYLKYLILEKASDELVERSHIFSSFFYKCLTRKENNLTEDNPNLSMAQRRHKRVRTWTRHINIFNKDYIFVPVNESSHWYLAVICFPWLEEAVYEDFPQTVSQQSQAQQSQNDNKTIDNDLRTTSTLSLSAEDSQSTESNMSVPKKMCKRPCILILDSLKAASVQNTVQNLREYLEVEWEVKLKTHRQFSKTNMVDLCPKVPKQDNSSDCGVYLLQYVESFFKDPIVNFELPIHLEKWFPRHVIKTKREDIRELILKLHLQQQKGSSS

Caspase-3 = molecular target: T5, Caspase-3 (Homo sapiens, UniProt P42574); test: SAR Analysis of small molecule inhibitors of Sentrin-specific proteases (SENPs) using a Caspase-3 Selectivity assay. [Related pubchem assays (depositor defined):AID2540, AID2599, AID434973, AID489001]; type: functional
T5 sequence (P42574 whole entry): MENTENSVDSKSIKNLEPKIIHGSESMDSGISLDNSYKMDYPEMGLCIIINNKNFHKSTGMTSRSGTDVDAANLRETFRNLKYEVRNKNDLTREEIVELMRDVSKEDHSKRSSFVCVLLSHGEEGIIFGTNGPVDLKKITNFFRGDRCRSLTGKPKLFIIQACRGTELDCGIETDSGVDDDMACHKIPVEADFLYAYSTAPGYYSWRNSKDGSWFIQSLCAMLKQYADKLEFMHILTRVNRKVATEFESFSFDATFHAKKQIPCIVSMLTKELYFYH

[14] = molecular target: Neuropeptides B/W receptor type 1 (Homo sapiens, UniProt P48145); test: human NPBW1 receptor blockade, IC50 – cell-based, fluorescence, dose response, set 6, late-stage follow-up (AID 588583); type: functional
[15] = molecular target: Melanin-concentrating hormone receptor 1 (Homo sapiens, UniProt Q99705); test: Late-stage fluorescence-based counterscreen for antagonists of the G-protein coupled receptor 7 (GPR7): cell-based dose response assay to identify antagonists of the melanin-concentrating hormone receptor 1 (MCHR1) Set 6.; type: functional
[16] = molecular target: Hepatocyte nuclear factor 4-alpha (Homo sapiens, UniProt P41235); type: functional, cell-based;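 also: biochemical luminescence-based dose-response counterscreen measuring inhibition of HNF4 dimerization, run alongside a screen for blockers of ABHD5–perilipin-5 interaction; split luciferase complementation of HNF4 fusion proteins in cell lysate measuring dimerization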
[17] = molecular target: Mitochondrial peptide methionine sulfoxide reductase (Bos taurus, UniProt P54149); type: functional;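 also: absorbance read-out, biochemical high-throughput dose-response screen for MsrA inhibitors, confirmatory; recombinant bovine MsrA coupled to E. coli TrxB with NADPH and selenocystamine; potency is for inhibitors of MsrA activity on DMSO substrate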
[18] = molecular target: T6, Heat shock factor protein 1 (Mus musculus, UniProt P38532); test: decrease of HSF1-responsive luciferase luminescence – cell-based, NIH3T3, dose retest, confirmation (AID 2382); type: functional;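 also: NIH3T3 fibroblasts with HSF1-driven luciferase reporter stressed by proteasome inhibitor MG132; luminescence from HSF1-driven luciferase expression after 8 hours of MG132 stress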
T6 sequence (P38532 whole entry): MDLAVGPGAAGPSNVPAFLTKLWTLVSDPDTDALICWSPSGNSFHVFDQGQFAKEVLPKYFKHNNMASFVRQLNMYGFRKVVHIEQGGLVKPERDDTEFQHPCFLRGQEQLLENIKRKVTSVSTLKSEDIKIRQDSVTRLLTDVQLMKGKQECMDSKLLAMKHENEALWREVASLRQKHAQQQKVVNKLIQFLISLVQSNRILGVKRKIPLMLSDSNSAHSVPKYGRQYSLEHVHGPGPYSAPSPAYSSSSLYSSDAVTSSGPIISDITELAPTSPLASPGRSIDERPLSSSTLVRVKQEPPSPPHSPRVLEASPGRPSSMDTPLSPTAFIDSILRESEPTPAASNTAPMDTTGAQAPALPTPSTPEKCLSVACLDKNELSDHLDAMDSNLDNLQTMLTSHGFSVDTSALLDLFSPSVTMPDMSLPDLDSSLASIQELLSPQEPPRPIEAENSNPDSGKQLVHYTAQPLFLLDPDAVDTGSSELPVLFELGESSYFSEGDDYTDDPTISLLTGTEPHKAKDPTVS

Melanin-concentrating hormone receptor 1, sequence (Q99705 whole entry, the tested form may be a part): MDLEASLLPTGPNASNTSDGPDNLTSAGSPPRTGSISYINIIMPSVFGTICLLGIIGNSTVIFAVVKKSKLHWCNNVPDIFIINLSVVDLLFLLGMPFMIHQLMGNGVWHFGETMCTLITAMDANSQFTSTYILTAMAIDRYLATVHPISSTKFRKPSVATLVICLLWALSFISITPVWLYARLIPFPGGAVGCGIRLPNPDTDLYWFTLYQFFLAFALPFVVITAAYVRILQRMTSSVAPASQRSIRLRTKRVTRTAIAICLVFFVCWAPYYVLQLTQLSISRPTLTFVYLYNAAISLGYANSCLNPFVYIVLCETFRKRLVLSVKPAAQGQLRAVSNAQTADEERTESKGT
Neuropeptides B/W receptor type 1, sequence (P48145 whole entry): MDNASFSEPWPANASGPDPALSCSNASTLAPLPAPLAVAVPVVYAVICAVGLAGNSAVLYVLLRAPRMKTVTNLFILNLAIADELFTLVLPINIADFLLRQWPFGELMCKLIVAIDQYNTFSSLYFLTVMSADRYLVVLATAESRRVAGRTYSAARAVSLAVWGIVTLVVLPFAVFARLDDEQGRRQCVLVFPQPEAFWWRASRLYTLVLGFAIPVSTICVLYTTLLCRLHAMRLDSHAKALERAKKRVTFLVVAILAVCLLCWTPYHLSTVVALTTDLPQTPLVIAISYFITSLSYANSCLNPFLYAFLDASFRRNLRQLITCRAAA
Protein disulfide-isomerase, sequence (P07237 whole entry): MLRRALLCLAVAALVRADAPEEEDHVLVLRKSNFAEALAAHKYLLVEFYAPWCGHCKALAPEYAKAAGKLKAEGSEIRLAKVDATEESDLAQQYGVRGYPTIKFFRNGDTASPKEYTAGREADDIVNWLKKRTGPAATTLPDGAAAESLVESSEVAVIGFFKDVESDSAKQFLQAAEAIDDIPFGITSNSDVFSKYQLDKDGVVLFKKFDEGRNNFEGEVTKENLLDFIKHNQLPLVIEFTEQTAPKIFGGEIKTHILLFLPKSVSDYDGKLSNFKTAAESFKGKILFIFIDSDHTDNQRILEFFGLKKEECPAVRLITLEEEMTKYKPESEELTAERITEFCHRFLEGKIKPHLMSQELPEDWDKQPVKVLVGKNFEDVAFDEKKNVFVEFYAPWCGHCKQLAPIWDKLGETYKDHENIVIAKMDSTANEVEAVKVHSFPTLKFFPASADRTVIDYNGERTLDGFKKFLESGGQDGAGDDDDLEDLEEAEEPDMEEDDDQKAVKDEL
Alkaline phosphatase, placental type, sequence (P05187 whole entry): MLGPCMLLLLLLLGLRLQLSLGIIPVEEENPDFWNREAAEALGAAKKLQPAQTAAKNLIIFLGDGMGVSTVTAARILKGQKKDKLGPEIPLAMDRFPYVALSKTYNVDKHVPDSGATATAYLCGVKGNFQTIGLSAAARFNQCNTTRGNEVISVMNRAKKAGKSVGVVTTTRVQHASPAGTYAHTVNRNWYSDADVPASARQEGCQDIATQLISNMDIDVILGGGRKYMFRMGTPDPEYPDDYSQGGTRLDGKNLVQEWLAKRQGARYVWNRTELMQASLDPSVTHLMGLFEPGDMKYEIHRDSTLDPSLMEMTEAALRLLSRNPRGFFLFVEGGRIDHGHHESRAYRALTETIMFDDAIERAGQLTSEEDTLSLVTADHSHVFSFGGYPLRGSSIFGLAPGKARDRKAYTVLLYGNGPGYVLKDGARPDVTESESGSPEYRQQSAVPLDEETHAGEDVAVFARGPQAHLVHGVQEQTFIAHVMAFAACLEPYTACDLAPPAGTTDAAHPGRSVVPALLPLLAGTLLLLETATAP
Melanocortin receptor 4, sequence (P32245 whole entry, the tested form may be a part): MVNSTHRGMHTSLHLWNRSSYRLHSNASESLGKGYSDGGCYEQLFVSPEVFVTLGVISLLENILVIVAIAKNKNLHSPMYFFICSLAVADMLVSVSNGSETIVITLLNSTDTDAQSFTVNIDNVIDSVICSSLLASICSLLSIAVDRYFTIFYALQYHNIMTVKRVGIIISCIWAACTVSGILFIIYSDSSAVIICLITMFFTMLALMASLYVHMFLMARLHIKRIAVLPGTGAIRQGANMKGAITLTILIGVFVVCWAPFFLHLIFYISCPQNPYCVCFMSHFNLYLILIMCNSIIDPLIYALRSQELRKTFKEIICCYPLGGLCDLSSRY
Intestinal-type alkaline phosphatase (Mus musculus, UniProt P24822), sequence (P24822 whole entry): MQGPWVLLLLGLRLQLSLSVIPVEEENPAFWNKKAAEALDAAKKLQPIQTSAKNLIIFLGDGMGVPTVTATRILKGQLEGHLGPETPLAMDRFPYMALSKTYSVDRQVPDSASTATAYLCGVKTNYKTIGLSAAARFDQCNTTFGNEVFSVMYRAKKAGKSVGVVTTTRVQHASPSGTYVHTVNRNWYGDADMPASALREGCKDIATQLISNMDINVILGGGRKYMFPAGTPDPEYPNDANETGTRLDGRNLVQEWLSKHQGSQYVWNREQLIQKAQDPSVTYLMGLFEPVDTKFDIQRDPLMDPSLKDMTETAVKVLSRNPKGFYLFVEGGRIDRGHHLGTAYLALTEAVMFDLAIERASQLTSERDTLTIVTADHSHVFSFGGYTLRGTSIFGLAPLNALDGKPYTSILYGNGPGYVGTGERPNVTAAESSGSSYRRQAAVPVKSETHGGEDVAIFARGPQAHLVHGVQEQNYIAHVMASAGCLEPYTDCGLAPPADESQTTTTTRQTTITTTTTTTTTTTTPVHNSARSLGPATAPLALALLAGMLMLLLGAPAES
Hepatocyte nuclear factor 4-alpha, sequence (P41235 whole entry, the tested form may be a part): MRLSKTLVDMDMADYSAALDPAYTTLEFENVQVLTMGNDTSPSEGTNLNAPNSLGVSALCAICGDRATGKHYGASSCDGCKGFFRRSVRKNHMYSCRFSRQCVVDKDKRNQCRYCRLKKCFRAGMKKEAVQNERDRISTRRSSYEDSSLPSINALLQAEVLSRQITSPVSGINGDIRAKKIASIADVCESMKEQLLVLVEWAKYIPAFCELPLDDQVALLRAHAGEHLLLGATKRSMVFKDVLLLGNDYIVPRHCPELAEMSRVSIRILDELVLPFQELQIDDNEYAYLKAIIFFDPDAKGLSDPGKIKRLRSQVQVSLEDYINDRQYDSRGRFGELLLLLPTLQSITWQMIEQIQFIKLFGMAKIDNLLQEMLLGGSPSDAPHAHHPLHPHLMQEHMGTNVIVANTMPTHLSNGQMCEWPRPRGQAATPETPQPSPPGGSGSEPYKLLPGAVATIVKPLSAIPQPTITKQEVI
Mitochondrial peptide methionine sulfoxide reductase, sequence (P54149 whole entry): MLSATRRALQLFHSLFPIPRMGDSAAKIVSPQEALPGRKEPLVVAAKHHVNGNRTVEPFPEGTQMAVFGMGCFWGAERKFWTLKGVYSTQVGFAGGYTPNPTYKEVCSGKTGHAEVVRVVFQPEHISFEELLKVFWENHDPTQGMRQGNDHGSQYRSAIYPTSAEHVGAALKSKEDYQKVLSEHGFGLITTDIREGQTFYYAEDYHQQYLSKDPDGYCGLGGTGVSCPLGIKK
Protein Wnt-3a, sequence (P27467 whole entry): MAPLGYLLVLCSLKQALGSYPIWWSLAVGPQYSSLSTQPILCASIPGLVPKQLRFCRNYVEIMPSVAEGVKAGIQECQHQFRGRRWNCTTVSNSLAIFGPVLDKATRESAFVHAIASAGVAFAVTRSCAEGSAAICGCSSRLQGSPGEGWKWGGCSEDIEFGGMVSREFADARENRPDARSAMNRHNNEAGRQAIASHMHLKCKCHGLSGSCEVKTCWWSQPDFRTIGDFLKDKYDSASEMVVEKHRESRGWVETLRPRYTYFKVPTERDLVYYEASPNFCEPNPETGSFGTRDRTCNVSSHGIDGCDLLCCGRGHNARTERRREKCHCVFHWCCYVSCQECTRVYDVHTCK
Intestinal-type alkaline phosphatase (Homo sapiens, UniProt P09923), sequence (P09923 whole entry): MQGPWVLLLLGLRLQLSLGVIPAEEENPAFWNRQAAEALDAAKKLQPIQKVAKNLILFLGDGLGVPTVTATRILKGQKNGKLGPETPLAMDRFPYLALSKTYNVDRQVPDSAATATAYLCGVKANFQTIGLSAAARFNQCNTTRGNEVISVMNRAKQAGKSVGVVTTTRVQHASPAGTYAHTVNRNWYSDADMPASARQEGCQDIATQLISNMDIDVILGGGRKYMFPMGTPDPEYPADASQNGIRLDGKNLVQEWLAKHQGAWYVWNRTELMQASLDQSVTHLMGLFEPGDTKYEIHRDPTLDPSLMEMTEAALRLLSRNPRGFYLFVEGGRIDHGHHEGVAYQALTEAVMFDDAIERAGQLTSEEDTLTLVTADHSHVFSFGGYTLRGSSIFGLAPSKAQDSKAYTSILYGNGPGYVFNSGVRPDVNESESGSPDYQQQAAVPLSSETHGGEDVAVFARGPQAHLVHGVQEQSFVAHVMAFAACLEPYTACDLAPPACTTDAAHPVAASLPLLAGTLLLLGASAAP
Benomyl/methotrexate resistance protein, sequence (P28873 whole entry): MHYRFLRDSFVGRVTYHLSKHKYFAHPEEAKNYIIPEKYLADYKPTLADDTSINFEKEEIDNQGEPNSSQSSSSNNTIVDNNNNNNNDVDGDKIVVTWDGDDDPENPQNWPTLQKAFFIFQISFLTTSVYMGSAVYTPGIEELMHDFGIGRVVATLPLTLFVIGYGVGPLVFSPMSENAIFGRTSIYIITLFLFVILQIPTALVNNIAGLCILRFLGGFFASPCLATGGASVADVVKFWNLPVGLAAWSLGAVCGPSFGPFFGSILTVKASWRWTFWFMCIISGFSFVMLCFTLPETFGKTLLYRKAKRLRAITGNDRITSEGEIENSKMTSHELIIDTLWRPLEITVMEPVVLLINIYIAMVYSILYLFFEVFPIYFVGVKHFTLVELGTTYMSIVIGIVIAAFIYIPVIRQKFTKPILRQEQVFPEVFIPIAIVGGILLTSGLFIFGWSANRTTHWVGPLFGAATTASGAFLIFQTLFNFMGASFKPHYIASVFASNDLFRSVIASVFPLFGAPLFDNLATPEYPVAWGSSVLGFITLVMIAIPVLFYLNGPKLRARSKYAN

AC50 [1]: 4.28 µM (active)
EC50 [2]: 22 µM (active)
IC50 [3]: 10.8 µM (active)
AC50 [4]: 11.4 µM (active)
IC50 [5]: 5.66 µM (active)
Structure (SMILES): C[C@@H]1O[C@@H](O[C@H]2[C@H](O)[C@@H](O)[C@H](Oc3c(-c4ccc(O)c(O)c4)oc4cc(O)cc(O)c4c3=O)O[C@@H]2CO)[C@H](O)[C@H](O)[C@H]1O

Structure (SMILES): c1ccc(-c2cn3c([n+]2-c2ccccc2)SCC3)cc1
IC50 (Protein Wnt-3a): 37.6 µM (inactive)
EC50 [6]: > 60 µM (not active)
EC50 [7]: 1.92 µM (active)

Structure (SMILES): COc1ccccc1-c1nc(C(N)=O)c2[nH]c(=O)n(-c3cccc(C)c3)c2n1
EC50 [8]: 17.2 µM (active)

EC50 (Melanocortin receptor 4): > 89.2 µM (inactive)
Structure (SMILES): CCOC(=O)c1ccc(-c2ccc(/C=C(\C#N)C(=O)NCc3cccs3)o2)cc1

IC50 [10]: > 100 µM (inactive)
Structure (SMILES): COc1ccc(-c2cc(NCc3ccccn3)n3ncnc3n2)cc1
AC50 [9]: 91.5 µM (active)

IC50 [12]: > 99 µM (inactive)
IC50 [13]: > 99 µM (inactive)
IC50 (Caspase-3): > 99 µM (inactive)
Structure (SMILES): CCOC(=O)c1c(-c2ccc(-c3ccccc3)cc2)csc1NC(=O)c1ccc(C)cc1
IC50 [11]: > 99 µM (inactive)

IC50 [12]: 3.5 µM (active)
IC50 [13]: 2 µM (active)
IC50 (Caspase-3): 0.97 µM (active)
Structure (SMILES): Oc1ccccc1-c1noc(-c2ccccc2O)n1
IC50 [11]: 3.6 µM (active)

IC50 [14]: > 20 µM (inactive)
IC50 [15]: > 20 µM (inactive)
Structure (SMILES): N#CC(C#N)c1cnn(Cc2cccc3ccccc23)c(=O)c1Cl

IC50 [14]: 2.17 µM (active)
IC50 [15]: 2.17 µM (active)
Structure (SMILES): CCC(C#N)c1c(Cl)cnn(Cc2cccc3ccccc23)c1=O (stereo not drawn)

IC50 [16]: 16.2 µM (inactive)
Structure (SMILES): O=C(Nc1ccc2c(c1)OCCO2)C(c1ccccc1F)n1c(=O)c(-c2ccco2)nc2ccccc21 (stereo not drawn)

IC50 [17]: 155 µM (inactive)
EC50 [18]: > 195 µM (not active)
Structure (SMILES): CCCCc1[nH]nc2c1/C(=N/OCC)CC(C)(C)C2

Structure (SMILES): C[C@@H]1O[C@@H](Oc2c(-c3ccc(O)c(O)c3)oc3cc(O)cc(O)c3c2=O)[C@H](O)[C@H](O)[C@H]1O [QUERCITRIN]
AC50 [1]: 2.48 µM (active)
